Test systems include LXFL 529 NSCLC; M19-MEL melanoma; SNB-78 CNS; DMS 114 small cell lung; XF 498 CNS; P388 leukemia; DLD-1 colon; SN12K1 renal; P388/ADR leukemia; RXF-631 renal.
Common to all, as to experiment: NCI tumour cell line growth inhibition, 48 h

Several values for one entry are separate records, joined by “and”; a condition that tells them apart may be missing. Equal values may be shown once.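 Test compounds were applied to cells in 96-well plates for 48 hours at 5 doses. GI50: concentration for 50% inhibition of growth. TGI: total growth inhibition.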

With `COc1cccc(NC(=O)CSc2nnc(-c3ccc(N=Cc4ccc(Cl)cc4)cc3)o2)c1`, the TGI with LXFL 529 NSCLC was 50.2 µM; in the test on M19-MEL melanoma it was 60.8 µM; with SNB-78 CNS, over 100 µM; in the test on DMS 114 small cell lung it was 46.9 µM; in the test on XF 498 CNS, 37.7 µM.
For the compound `CC1=CC(O)C(O)C2(C)C1CC1OC(=O)C(O)C3C(C)C(O)C4(O)OCC13C42` (stereo not drawn), the TGI with P388 leukemia is over 625 µM; in the test with M19-MEL melanoma it was 394 µM; in the test with SNB-78 CNS, 154 µM; in the test on DLD-1 colon, over 625 µM; with DMS 114 small cell lung, 157 µM; with SN12K1 renal, 150 µM. Moreover, the TGI was over 625 µM in the test on P388/ADR leukemia and 311 µM in the test on XF 498 CNS.
As for `O=S1(=O)NNC(=NCc2ccc(Cl)cc2)c2ccccc21`, the TGI with LXFL 529 NSCLC, with M19-MEL melanoma, with SNB-78 CNS, with DLD-1 colon, with DMS 114 small cell lung and in the test with RXF-631 renal was over 100 µM throughout. In the test with XF 498 CNS, this compound yielded a TGI of over 100 µM.
Take `COc1cc(C2C3=C(CCC3=O)Oc3cc4c(cc32)OCO4)cc(OC)c1OC` (stereo not drawn): the TGI in the test with M19-MEL melanoma is over 100 µM; in the test on SNB-78 CNS, over 100 µM; with DMS 114 small cell lung, 0.725 µM; in the test with RXF-631 renal it was 78.3 µM; with XF 498 CNS, 0.736 µM.
Consider `Cc1csc2c1C(=O)c1ccsc1C2=O`, for which the TGI with LXFL 529 NSCLC was 13.3 µM; in the test on M19-MEL melanoma, 0.339 µM; in the test with SNB-78 CNS, 16.5 µM; in the test on DLD-1 colon it was 10.6 µM; with DMS 114 small cell lung, 3.1 µM; in the test with XF 498 CNS, 5.06 µM.
As for `CCCCc1c2c(nc3c1CCc1cc4c(nc1-3)-c1nc3c(c(CCCC)c1CC4)CCC/C3=C\c1ccccc1)/C(=C/c1ccccc1)CCC2`, the TGI is over 100 µM in the test on LXFL 529 NSCLC; over 100 µM with M19-MEL melanoma; over 100 µM in the test with SNB-78 CNS; over 100 µM with DLD-1 colon; over 100 µM with DMS 114 small cell lung; 66.6 µM with XF 498 CNS.
As for `Cc1ccc(C(=O)N(C(C)C)C(C)C)cc1N=NN(C)C`, the TGI in the test with LXFL 529 NSCLC, in the test with M19-MEL melanoma, in the test with SNB-78 CNS and in the test with DLD-1 colon was over 100 µM each time.
As to `CCOc1ccc2[nH]c3c(C)c4cc[n+](C)cc4c(C)c3c2c1`, the TGI in the test on LXFL 529 NSCLC is 1.54 µM and 3.6 µM; with M19-MEL melanoma, 2.27 µM and 4.23 µM; in the test on SNB-78 CNS, over 100 µM; in the test on DLD-1 colon it was over 100 µM; in the test with DMS 114 small cell lung, 2.74 µM and 4.7 µM. Further, the GI50 was 0.557 µM and 1.5 µM with M19-MEL melanoma; 0.48 µM and 1.24 µM with DMS 114 small cell lung.
With `O=c1[nH]c(=O)n(C2OC(COP(=O)(O)OP(=O)(O)O)C(O)C2O)cc1F` (stereo not drawn), the TGI in the test with LXFL 529 NSCLC, in the test on M19-MEL melanoma, with SNB-78 CNS, with DLD-1 colon, with DMS 114 small cell lung and in the test with XF 498 CNS was over 50 µM throughout.
For the compound `CN1CCn2c(Br)ccc2C1=O`, the TGI with LXFL 529 NSCLC, in the test on M19-MEL melanoma, in the test on SNB-78 CNS and with XF 498 CNS was over 100 µM each time.

These data come from PubChem BioAssay (NCI).
